pKi: −log10 of the molar value.

This experiment has as its target T1, Carbamoyl-phosphate synthase small chain (Escherichia coli (strain K12), UniProt P0A6F1).
T1 sequence (P0A6F1 whole entry): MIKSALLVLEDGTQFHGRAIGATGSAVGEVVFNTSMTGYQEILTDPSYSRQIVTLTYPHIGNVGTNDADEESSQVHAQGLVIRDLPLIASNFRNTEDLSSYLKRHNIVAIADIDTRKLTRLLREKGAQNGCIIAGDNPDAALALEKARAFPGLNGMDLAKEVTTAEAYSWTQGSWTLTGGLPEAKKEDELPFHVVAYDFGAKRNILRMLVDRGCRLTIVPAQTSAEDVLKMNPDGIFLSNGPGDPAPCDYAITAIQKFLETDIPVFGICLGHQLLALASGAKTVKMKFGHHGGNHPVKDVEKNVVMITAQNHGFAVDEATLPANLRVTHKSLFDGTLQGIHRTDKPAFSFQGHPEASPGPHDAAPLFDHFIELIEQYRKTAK
Description: Enzyme Assay. To be noted: pH 7.5. As for the experimental part: The rate of carbamoyl phosphate synthesis was determined by use of a coupled enzyme assay with ornithine transcarbamoylase.
The term pKi denotes −log10 of the Ki, conventionally taken in molar units. Low values mean a large Ki, high ones a small Ki. Turning to `NC(=O)CCC(N)C(=O)O` (stereo not given) [Glutamine Analogue, 1], the pKi is 4.27.

In turn, `NC(CCC(=O)NO)C(=O)O` (stereo not given) [Glutamine Analogue, 2] gave a pKi of 5.05. This pKi is 0.78 log units higher than that of the compound before. Compound `NNC(=O)CCC(N)C(=O)O` (stereo not given) [Glutamine Analogue, 3] had a pKi of 3.47. In the case of `NC(CCC(=O)O)C(=O)O` (stereo not given) [Glutamine Analogue, 4], the pKi was 1.55. With `COC(=O)CCC(N)C(=O)O` (stereo not given) [Glutamine Analogue, 5] the figure was 1.60.

(Values after BindingDB's records for doi:10.1021/bi00246a005 (Texas A&M University, 1991).)
